The record followed here is patent US20210222184A1, “COMPOSITIONS AND METHODS FOR EXPRESSING TRANSGENES USING REGULATORY ELEMENTS FROM RUBISCO ACTIVASE GENES” (DOW AGROSCIENCES LLC, priority 2018, published 2021).

The subject of series [1] is GFP. Particulars: GFP driven by AtUbi10/AtuOrf23 in both constructs; Typhoon scanner, 6th day after infiltration. As for the experimental part:
N. benthamiana plants were grown in the greenhouse under 16 hour photoperiod, 27° C./24° C. Twenty four day old plants were used for infiltration. The 3-4 top-most leaves were infiltrated using two Agrobacterium strains. The first strain was used in all infiltrations and carried the pDAB112236 construct expressing P19 silencing suppressor (Silhavy et al, (2002), EMBO J, 21, 3070-3080). The second Agrobacterium strain was either the experimental strain carrying pDAB116647 (SEQ ID NO:12) or a strain carrying the control pDAB110167 binary vector (FIG. 6). The pDAB110167 was identical to the pDAB116647 (SEQ ID NO:12) except that it had the reporter tagRFP/AAD12 fusion gene driven by the ScBV (Sugar Cane Bacilliform Virus) promoter fused to the Maize Streak Virus (MSV) 5′ leader engineered to contain maize Alcohol dehydrogenaseI (AdhI) gene intron 6 was paired with the StPinII terminator fragment (abbreviated ScBV/StPinII) to drive expression of the tagRFP/AAD12 reporter gene.
For N. benthamiana leaf infiltrations Agrobacterium strains containing either the pDAB116647 or pDAB110167 were mixed in equal proportions with an Agrobacterium strain that carried a plasmid that contained a gene encoding the P19 silencing suppressor Voinnet et al, (1999), Proc Natl Acad Sci USA, 96, 14147-14152. The mixing ratios were based on Optical Density (OD) readings. The density of all Agrobacterium cultures was adjusted to OD 2.0. After infiltration plants were maintained in a Conviron until leaves were collected on the 6th day after infiltration. Fluorescence data were collected using a Typhoon scanner from 30 leaves per construct with 3-5 one inch disks per leaf.
All samples from N. benthamiana were scanned on 3 channels: chlorophyll (488 nm blue laser, 670 nm BP30, 580 nm split), GFP (488 nm blue laser, 520 nm BP40, 580 nm split), and tagRFP (532 nm green laser, 580 nm BP30). The PhotoMultiplier Tube (PMT) setting used for N. benthamiana was 340/340/400. Background adjustments were made by subtracting calculated means for non-treated and empty vector controls from test treatment values. The values from each leaf were averaged to generate a mean fluorescence value.

Series [2] deals with tagRFP/AAD12 reporter gene. Description: N. benthamiana leaf infiltration transient assay, RFP fluorescence. Type of series: in vivo. The conditions noted are these: for RFP Mean / RFP Median: Typhoon scanner fluorescence, leaves collected 6th day after infiltration, co-infiltrated with P19 silencing suppressor strain. From the text:
Twenty four day old plants were used for infiltration.

Series [3] deals with transgenic soybean plants. Briefly: 2,4-D herbicide tolerance of T1 transgenic soybean plants. Type of series: in vivo, Glycine max. The conditions noted are these: 2240 g ae/ha 2,4-D foliar. An excerpt: To assess T1 Soybean Herbicide Tolerance, T1 seed generated from self-pollination of single copy T0 events were planted in an artificial soil mix (MetroMix 360™) contained in 4-inch square pots. The T1 generation is a segregating population of the homozygous, hemizygous and non-transgenic plants. To eliminate the null individuals, the T1 population received a foliar application of 411 g active ingredient (ai)/ha glufosinate ammonium (Liberty® 280) when plants reached the first trifoliate leaf stage. Four days after application (DAA) surviving plants were sampled for molecular analysis to determine transgene zygosity and to confirm transgene copy number.
For each event, 8 homozygous and 8 hemizygous plants were sampled for protein analyses, and the following day (third trifoliate stage), half of the plants received a foliar application of 2240 g acid equivalent (ae)/ha 2,4-D dimethylamine (DMA) salt (Weedar® 64). The remaining plants received no spray application. Some plants were also sprayed with deionized water as a sprayer application control. In addition to the transformed events, the soybean variety, ‘Maverick’, was included in each treatment as a non-transformed control.
Foliar applications were made with a Mandel track sprayer set to deliver a spray solution at 187 L/ha to a spray area of 0.503 m^2 using an 8002E nozzle and a spray height of 18 inches above the plant canopy. Plant response to the 2,4-D application was evaluated at 5 hours after application (HAA) and 1, 7, and 14 DAA. Data were collected by assessment of visual injury and/or growth reduction as compared to untreated controls on a scale of 0% to 100% with 0% corresponding to no injury or growth reduction and 100% corresponding to complete plant death. Plants were maintained at 28° C./25° C. (day/night) under a 14 h photoperiod and sub-irrigated with water or fertilizer as needed.

For the substance “pDAB110167: control binary vector; tagRFP/AAD12 driven by ScBV promoter, MSV 5' leader with AdhI intron 6, StPinII terminator [reference compound]”, in series [1], the “GFP Mean” value is recorded as 166966846 and the “GFP Median” value is listed as 148985095. Further, in series [2], the “RFP Mean” value is on record as 24746396 and the “RFP Median” value was found to be 21007653.

Consider “pDAB116632: plasmid with GmRubAct promoter and 5' UTR fused to AAD12 gene, terminated with GmRubAct terminator”, for which, in series [3] (Hemi), the “% Injury Mean 1 DAA” value is listed as 18.13%, the “% Injury Mean 5 HAA” value is 15.0%, the “% Injury Mean 7 DAA” value is on record as 4.38% and the “% Injury Mean 14 DAA” value turned out to be 3.75%. Also, in series [3] (Homo), the “% Injury Mean 1 DAA” value is 12.0%, the “% Injury Mean 5 HAA” value is 8.67%, the “% Injury Mean 7 DAA” value is recorded as 2.33% and the “% Injury Mean 14 DAA” value is reported as 1.67%.

For the substance “pDAB116647: binary vector with tagRFP/AAD12 reporter gene driven by GmRubAct promoter, 5' UTR and terminator”, in series [1], the “GFP Mean” value is 161956091 and the “GFP Median” value is recorded as 156309149. Moreover, in series [2], the “RFP Mean” value is given as 40982229 and the “RFP Median” value is on record as 39409305. Besides, the “RFP fluorescence relative to the control (pDAB110167) construct” value in series [2] (mean and median, p-Value <0.0001) is “significantly higher”.
